Reference: patent publication US20080221128A1, “Metalloprotease inhibitors containing a squaramide moiety” (priority 2007, published 2008)
Where two headings read alike, the source gives them in different places.

How the values were obtained:
Assay type in all cases: biochemical
[1] = target: T1, MMP-13 (Homo sapiens, UniProt P45452); test: Assay for determining MMP-13 inhibition (fluorescent substrate); settings: catalytic domain of MMP-13
T1 construct: stock solution of catalytic domain of MMP-13 enzyme (produced by Alantos or commercially available from Invitek (Berlin), Cat.# 30100812); purchased Invitek (Berlin) 30100812
Experimental: The typical assay for MMP-13 activity is carried out in assay buffer comprised of 50 mM Tris, pH 7.5, 150 mM NaCl, 5 mM CaCl2 and 0.05% Brij-35. Different concentrations of tested compounds are prepared in assay buffer in 50 μL aliquots. 10 μL of a 50 nM stock solution of catalytic domain of MMP-13 enzyme (produced by Alantos or commercially available from Invitek (Berlin), Cat.# 30100812) is added to the compound solution. The mixture of enzyme and compound in assay buffer is thoroughly mixed and incubated for 10 min at room temperature. Upon the completion of incubation, the assay is started by addition of 40 μL of a 12.5 μM stock solution of MMP-13 fluorescent substrate (Calbiochem, Cat. No. 444235). The time-dependent increase in fluorescence is measured at the 320 nm excitation and 390 nm emission by automatic plate multireader. The IC50 values are calculated from the initial reaction rates.

[2] = target: T2, MMP-8 (Homo sapiens, UniProt P22894); test: Assay for determining MMP-8 inhibition (fluorescent substrate); settings: activated MMP-8 enzyme; upper bound class
T2 construct: purchased Calbiochem 444229
Experimental: The typical assay for MMP-8 activity is carried out in assay buffer comprised of 50 mM Tris, pH 7.5, 150 mM NaCl, 5 mM CaCl2 and 0.05% Brij-35. Different concentrations of tested compounds are prepared in assay buffer in 50 μL aliquots. 10 μL of a 50 nM stock solution of activated MMP-8 enzyme (Calbiochem, Cat. No. 444229) is added to the compound solution. The mixture of enzyme and compound in assay buffer is thoroughly mixed and incubated for 10 min at 37° C. Upon the completion of incubation, the assay is started by addition of 40 μL of a 10 μM stock solution of OmniMMP fluorescent substrate (Biomol, Cat. No. P-126). The time-dependent increase in fluorescence is measured at the 320 nm excitation and 390 nm emission by an automatic plate multireader at 37° C. The IC50 values are calculated from the initial reaction rates.

[3] = target: T3, MMP-3 (Homo sapiens, UniProt P08254); test: Assay for determining MMP-3 inhibition (fluorescent substrate); settings: catalytic domain of MMP-3
T3 construct: stock solution of the catalytic domain of MMP-3 enzyme (Biomol, Cat. No. SE-109); purchased Biomol SE-109
Experimental: The typical assay for MMP-3 activity is carried out in assay buffer comprised of 50 mM MES, pH 6.0, 10 mM CaCl2 and 0.05% Brij-35. Different concentrations of tested compounds are prepared in assay buffer in 50 μL aliquots. 10 μL of a […] stock solution of the catalytic domain of MMP-3 enzyme (Biomol, Cat. No. SE-109) is added to the compound solution. The mixture of enzyme and compound in assay buffer is thoroughly mixed and incubated for 10 min at room temperature. Upon the completion of incubation, the assay is started by addition of 40 μL of a 12.5 μM stock solution of NFF-3 fluorescent substrate (Calbiochem, Cat. No. 480-455). The time-dependent increase in fluorescence is measured at the 330 nm excitation and 390 nm emission by an automatic plate multireader. The IC50 values are calculated from the initial reaction rates.

[4] = upper bound class, read-out: MMP-13 inhibition activity (IC50 MMP-13)
[5] = upper bound class, read-out: MMP-3 inhibition activity (IC50 MMP-3)

T3 sequence (P08254 100-272 limits assumed): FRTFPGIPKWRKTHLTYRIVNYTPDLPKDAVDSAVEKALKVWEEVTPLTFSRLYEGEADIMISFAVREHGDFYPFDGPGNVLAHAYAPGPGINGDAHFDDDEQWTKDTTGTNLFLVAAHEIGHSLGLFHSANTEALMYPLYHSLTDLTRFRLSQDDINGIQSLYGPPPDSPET
T2 sequence (P22894 101-467): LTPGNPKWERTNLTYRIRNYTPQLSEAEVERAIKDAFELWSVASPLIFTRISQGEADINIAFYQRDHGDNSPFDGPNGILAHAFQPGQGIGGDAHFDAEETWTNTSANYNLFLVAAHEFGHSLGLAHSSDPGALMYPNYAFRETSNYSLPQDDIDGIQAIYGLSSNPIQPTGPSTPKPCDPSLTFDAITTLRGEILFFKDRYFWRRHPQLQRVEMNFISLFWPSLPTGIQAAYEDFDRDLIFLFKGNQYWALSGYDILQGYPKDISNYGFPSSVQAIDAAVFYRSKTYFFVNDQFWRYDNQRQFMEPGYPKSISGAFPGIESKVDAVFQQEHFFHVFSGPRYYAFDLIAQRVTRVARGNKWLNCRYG

IC50 [1, 4] [nM] | IC50 [2] [nM] | IC50 [3, 5] [nM] | IC50 ([1]; range bounds printed with own units (nM to μM), read-out: MMP-13 inhibition activity (IC50 MMP-13), range) [nM] | IC50 ([3]; range bounds printed with own units (nM to μM), read-out: MMP-3 inhibition activity (IC50 MMP-3), range) [nM] | SMILES
< 100 | < 250 | < 250 | – | – | Nc1c(N2CCc3ccc(CNC(=O)c4nc5sc6c(c5c(=O)[nH]4)CCC4(C6)OCCO4)cc3C2)c(=O)c1=O [1/8]
< 100 | – | – | – | – | Cc1nc(C(=O)NCc2ccc3c(c2)CN(c2c(N)c(=O)c2=O)CC3)[nH]c(=O)c1C [Example 1/2]
– | – | – | 100 to 20000 | 250 to 20000 | Nc1c(N2CCc3ccc(CNC(=O)c4ncc(-c5ccc(F)cc5)c(=O)[nH]4)cc3C2)c(=O)c1=O [Example 1]
< 100 | < 250 | < 250 | – | – | Cc1csc2nc(C(=O)NCc3ccc4c(c3)CN(c3c(N)c(=O)c3=O)CC4)[nH]c(=O)c12 [Example 1/3]
